Values of other authors, collected in patent US6706282B1, “Controlled delivery of phenoxyethyl-substituted 1,2,4-triazolones” (priority 1998, dated 2004).
Where a name gives a salt, the structure may show the parent alone.

time of peak plasma concentrations after dosing (conventional immediate release formulations): about one | half-life (in vivo): 2 to 4 h
Compound: CCc1nn(CCCN2CCN(c3cccc(Cl)c3)CC2)c(=O)n1CCOc1ccccc1 [nefazodone hydrochloride, 2-[3-[4-(3-chlorophenyl)-piperazinyl]propyl]-5-ethyl-4-(2-phenoxyethyl)-2H-1,2,4-triazol-3(4H)-one hydrochloride]
